In brackets after ≈: the same amount, converted by molar mass. Where two headings read alike, the source gives them in different places.
How the values were obtained:
S. aureus ATCC 13709 [1] = assay: microbe, parasite or virus in culture; type: cell-based; settings: for Minimum inhibitory concentration, S. aureus ATCC 13709: CAMHB, 37° C., 18 h; for Antibacterial activity (in words, from Table 1): S. aureus MIC
Protocol: (§1) Susceptibility of S. aureus strains to the known antibiotics and synthesized compounds was determined by following the guidelines set by NCCLS (M26-A). Compounds were diluted two-fold serially in DMSO and transferred to cation-adjusted Mueller Hinton broth (CAMHB; Becton Dickinson). 50 μL of compounds diluted in CAMHB was mixed with 100 μL of bacteria diluted in CAMHB in 96-well microtiter plates. The final concentration of micro-organisms in the assay was 5×10^5c.f.u. per mL and the final concentration of DMSO in the assay was 1.25%. Assays were set up in duplicate and incubated at 37° C. for 18 h. The lowest concentration of compound that inhibited visible growth was reported as the minimum inhibitory concentration (MIC).

S. aureus ATCC 13709 [2] = assay: microbe, parasite or virus in culture; type: cell-based; settings: for Serum dependence of antibacterial activity (in words): MIC with versus without serum
Protocol: as §1
Susceptibility testing experiments were also carried out in the presence of serum. These experiments were carried out similar to the susceptibility testing with the following modifications. 75 μL of compounds diluted in CAMHB was mixed with 75 μL of bacteria diluted in 100% serum from any given source (commercial pooled mouse serum (MS) and human serum (HS), Equitech-Bio Inc.) or diluted in 8% purified human serum albumin (HSA) (Calbiochem). The final concentration of animal serum in the assay was 50% and the final concentration of purified human serum albumin in the assay was 4%; the concentrations of all other components were identical to those described for susceptibility testing.

[3] = type: in vitro ADME; settings: for % Conversion (prodrug converted to parent drug after binding to bone): 24 h incubation, 37° C.
Protocol: Amounts of parent drug “regenerated” from the phosphonated prodrug were measured as follows. Washed bone powder-bound prodrugs from the above experiment were resuspended in 400 μL PBS+2% DMSO or in 400 μL 50% (v/v in PBS+2% DMSO) human or rat serum. The suspension was incubated overnight at 37° C., centrifuged at 13,000 rpm for 2 min and the supernatant was recovered. The amount of regenerated parent drug in the supernatant was determined by measurements using the microbiological assay that was previously described for the prodrugs themselves. The amount of prodrug was deduced from standard curves of known amounts of parent drug that were used as reference for each experiment. The amount of regenerated drug assessed by this bioassay was corroborated by MIC determination. The percentage of drug regenerated in PBS or serum after the overnight incubation (Table 2) was deduced from the difference between the amount of bound prodrug and the amount of regenerated drug (not shown).

S. aureus ATCC 29213 = assay: Antibacterial susceptibility (MIC), NCCLS broth microdilution; type: cell-based; settings: CAMHB, 37° C., 18 h
Protocol: as §1

[4] = tested on: S. aureus ATCC 13709^A, Novobiocin and Rifampicin resistant variant; assay: as above; type: cell-based
Protocol: as §1

Compound	Minimum inhibitory concentration, S. aureus ATCC 13709 (S. aureus ATCC 13709 [1]) [µg/mL]	Antibacterial activity (in words, from Table 1) (S. aureus ATCC 13709 [1])	Minimum inhibitory concentration, ATCC 13709 + 50% Human Serum (S. aureus ATCC 13709 [2]; 50% Human Serum) [µg/mL]	Minimum inhibitory concentration, ATCC 13709 + 50% Mouse Serum (S. aureus ATCC 13709 [2]; 50% Mouse Serum) [µg/mL]	Minimum inhibitory concentration, ATCC 13709 + 50% Rat Serum (S. aureus ATCC 13709 [2]) [µg/mL]	Release of parent rifabutin from bone powder-bound prodrug (in words) [3]	% Conversion (prodrug converted to parent drug after binding to bone) ([3]; 50% Heat Inactivated Rat Serum) [%]	% Conversion (prodrug converted to parent drug after binding to bone) ([3]; 50% Rat Serum) [%]	% Conversion (prodrug converted to parent drug after binding to bone) ([3]; PBS) [%]	Minimum inhibitory concentration, S. aureus ATCC 29213 (S. aureus ATCC 29213) [µg/mL]	Minimum inhibitory concentration, S. aureus ATCC 13709^A [4] [µg/mL]	Serum dependence of antibacterial activity (in words) (S. aureus ATCC 13709 [2])	Minimum inhibitory concentration, ATCC 13709 + 50% Mouse Serum (S. aureus ATCC 13709 [2]) [µg/mL]	Minimum inhibitory concentration, ATCC 13709 + 50% Human Serum (S. aureus ATCC 13709 [2]) [µg/mL]
CO[C@H]1/C=C/O[C@@]2(C)Oc3c(C)c(O)c4c(c3C2=O)C2=NC3(CCN(CC(C)C)CC3)N(C(=O)Oc3ccc(NC(=O)CCC(P(=O)(O)O)P(=O)(O)O)cc3)C2=C(NC(=O)/C(C)=C\C=C\[C@H](C)[C@H](O)[C@@H](C)[C@@H](O)[C@@H](C)[C@H](OC(C)=O)[C@@H]1C)C4=O [Compound 28]	0.5 (≈ 0.412 µM)	very low MICs whether in the absence or in the presence of serum	0.25	2	0.0625	release significant amounts of the parent rifabutin once bound to bone powder, regardless of the presence of serum	0.07 ± 0.02	0.06 ± 0.01	0.06 ± 0.01	0.5 (≈ 0.412 µM)	>128			
CCN(CC)CC.CO[C@H]1/C=C/O[C@@]2(C)Oc3c(C)c(O)c4c(c3C2=O)C2=NC3(CCN(CC(C)C)CC3)NC2=C(NC(=O)/C(C)=C\C=C\[C@H](C)[C@H](OC(=O)CN(C)CC(=O)NC(P(=O)(O)O)P(=O)(O)O)[C@@H](C)[C@@H](O)[C@@H](C)[C@H](OC(C)=O)[C@@H]1C)C4=O [Compound 147]	128	near complete loss of activity	16	2	32					128	>128			
CO[C@H]1/C=C/O[C@@]2(C)Oc3c(C)c(O)c4c(c3C2=O)C2=NC3(CCN(CC(C)C)CC3)NC2=C(NC(=O)/C(C)=C\C=C\[C@H](C)[C@H](OC(=O)CN(C)CCOC(=O)CCC(P(=O)(O)O)P(=O)(O)O)[C@@H](C)[C@@H](O)[C@@H](C)[C@H](OC(C)=O)[C@@H]1C)C4=O [Compound 36]	2 (≈ 1.68 µM)		2	1	0.0625	release significant amounts of the parent rifabutin once bound to bone powder, regardless of the presence of serum	0.07	0.07	0.07	2 (≈ 1.68 µM)	>128	significant increase in antibacterial activity in serum		
CO[C@H]1/C=C/O[C@@]2(C)Oc3c(C)c(O)c4c(c3C2=O)C2=NC3(CCN(CC(C)C)CC3)NC2=C(NC(=O)/C(C)=C\C=C\[C@H](C)[C@H](OC(=O)CNC(=O)CCCNC(=O)NC(P(=O)(O)O)P(=O)(O)O)[C@@H](C)[C@@H](O)[C@@H](C)[C@H](OC(C)=O)[C@@H]1C)C4=O.N.N [Compound 155]	32	near complete loss of activity	128		8					128	>128		>128	
CO[C@H]1/C=C/O[C@@]2(C)Oc3c(C)c(O)c4c(c3C2=O)C2=NC3(CCN(CC(C)C)CC3)NC2=C(NC(=O)/C(C)=C\C=C\[C@H](C)[C@H](OC(=O)CN(C)CC(=O)Nc2ccc(CC(P(=O)(O)O)P(=O)(O)O)cc2)[C@@H](C)[C@@H](O)[C@@H](C)[C@H](OC(C)=O)[C@@H]1C)C4=O [Compound 150]	64 (≈ 51.6 µM)			128	16					64 (≈ 51.6 µM)	>128			>128
CCCCOC(=O)NCCN(CCCCC(P(=O)(O)O)P(=O)(O)O)CC(=O)O[C@@H]1[C@@H](C)[C@@H](O)[C@@H](C)[C@H](OC(C)=O)[C@H](C)[C@@H](OC)/C=C/O[C@@]2(C)Oc3c(C)c(O)c4c(c3C2=O)C2=NC3(CCN(CC(C)C)CC3)NC2=C(NC(=O)/C(C)=C\C=C\[C@@H]1C)C4=O [Compound 71]	4 (≈ 3.13 µM)		16	8	1					8 (≈ 6.26 µM)	>128	significant increase in antibacterial activity in serum		
CCN(CC)CC.CO[C@H]1/C=C/O[C@@]2(C)Oc3c(C)c(O)c4c(c3C2=O)C2=NC3(CCN(CC(C)C)CC3)NC2=C(NC(=O)/C(C)=C\C=C\[C@H](C)[C@H](OC(=O)CNC(=O)Nc2ccc(CC(P(=O)(O)O)P(=O)(O)O)cc2)[C@@H](C)[C@@H](O)[C@@H](C)[C@H](OC(C)=O)[C@@H]1C)C4=O [Compound 142a]	16		128	16	2					16	>128	weak antibacterial activity does not show a serum dependence		
CO[C@H]1/C=C/O[C@@]2(C)Oc3c(C)c(O)c4c(c3C2=O)C2=NC3(CCN(CC(C)C)CC3)NC2=C(NC(=O)/C(C)=C\C=C\[C@H](C)[C@H](OC(=O)CN(C)CCOC(=O)CNC(=O)CCC(P(=O)(O)O)P(=O)(O)O)[C@@H](C)[C@@H](O)[C@@H](C)[C@H](OC(C)=O)[C@@H]1C)C4=O [Compound 42]	0.125 (≈ 0.1 µM)	very low MICs whether in the absence or in the presence of serum	0.0625	0.125	0.03125					0.25 (≈ 0.2 µM)	>128			
CO[C@H]1/C=C/O[C@@]2(C)Oc3c(C)c(O)c4c(c3C2=O)C2=NC3(CCN(CC(C)C)CC3)NC2=C(NC(=O)/C(C)=C\C=C\[C@H](C)[C@H](OC(=O)CNC(=O)CNC(=O)[C@@H](Cc2ccccc2)NC(=O)CNC(=O)CCC(P(=O)(O)O)P(=O)(O)O)[C@@H](C)[C@@H](O)[C@@H](C)[C@H](OC(C)=O)[C@@H]1C)C4=O.N.N [Compound 79b]	64		128	64	8					64	>128			
